Reference: paper doi:10.1101/2025.04.19.649632v1 (biorxiv, 2025)
Where two headings read alike, the source gives them in different places.

Columns and labels:
[1] = molecular target: T1, USP32 FL (USP32FL, USP32WT) (Homo sapiens, UniProt Q8NFA0); conditions: read-out: Ki; covalent
[2] = molecular target: T1, USP32 FL (USP32FL, USP32WT); assay: biochemical; conditions: read-out: kinact (s^-1)
[3] = molecular target: T1, USP32 FL (USP32FL, USP32WT); type: biochemical; conditions: 500 nM UbRhoMP, pH 7.6, 1 mM TCEP, RT; covalent
[4] = molecular target: T1, USP32 FL (USP32FL, USP32WT); assay: UbRhoMP fluorescence intensity assay, […] min preincubation; type: biochemical

T1 sequence (Q8NFA0 whole entry): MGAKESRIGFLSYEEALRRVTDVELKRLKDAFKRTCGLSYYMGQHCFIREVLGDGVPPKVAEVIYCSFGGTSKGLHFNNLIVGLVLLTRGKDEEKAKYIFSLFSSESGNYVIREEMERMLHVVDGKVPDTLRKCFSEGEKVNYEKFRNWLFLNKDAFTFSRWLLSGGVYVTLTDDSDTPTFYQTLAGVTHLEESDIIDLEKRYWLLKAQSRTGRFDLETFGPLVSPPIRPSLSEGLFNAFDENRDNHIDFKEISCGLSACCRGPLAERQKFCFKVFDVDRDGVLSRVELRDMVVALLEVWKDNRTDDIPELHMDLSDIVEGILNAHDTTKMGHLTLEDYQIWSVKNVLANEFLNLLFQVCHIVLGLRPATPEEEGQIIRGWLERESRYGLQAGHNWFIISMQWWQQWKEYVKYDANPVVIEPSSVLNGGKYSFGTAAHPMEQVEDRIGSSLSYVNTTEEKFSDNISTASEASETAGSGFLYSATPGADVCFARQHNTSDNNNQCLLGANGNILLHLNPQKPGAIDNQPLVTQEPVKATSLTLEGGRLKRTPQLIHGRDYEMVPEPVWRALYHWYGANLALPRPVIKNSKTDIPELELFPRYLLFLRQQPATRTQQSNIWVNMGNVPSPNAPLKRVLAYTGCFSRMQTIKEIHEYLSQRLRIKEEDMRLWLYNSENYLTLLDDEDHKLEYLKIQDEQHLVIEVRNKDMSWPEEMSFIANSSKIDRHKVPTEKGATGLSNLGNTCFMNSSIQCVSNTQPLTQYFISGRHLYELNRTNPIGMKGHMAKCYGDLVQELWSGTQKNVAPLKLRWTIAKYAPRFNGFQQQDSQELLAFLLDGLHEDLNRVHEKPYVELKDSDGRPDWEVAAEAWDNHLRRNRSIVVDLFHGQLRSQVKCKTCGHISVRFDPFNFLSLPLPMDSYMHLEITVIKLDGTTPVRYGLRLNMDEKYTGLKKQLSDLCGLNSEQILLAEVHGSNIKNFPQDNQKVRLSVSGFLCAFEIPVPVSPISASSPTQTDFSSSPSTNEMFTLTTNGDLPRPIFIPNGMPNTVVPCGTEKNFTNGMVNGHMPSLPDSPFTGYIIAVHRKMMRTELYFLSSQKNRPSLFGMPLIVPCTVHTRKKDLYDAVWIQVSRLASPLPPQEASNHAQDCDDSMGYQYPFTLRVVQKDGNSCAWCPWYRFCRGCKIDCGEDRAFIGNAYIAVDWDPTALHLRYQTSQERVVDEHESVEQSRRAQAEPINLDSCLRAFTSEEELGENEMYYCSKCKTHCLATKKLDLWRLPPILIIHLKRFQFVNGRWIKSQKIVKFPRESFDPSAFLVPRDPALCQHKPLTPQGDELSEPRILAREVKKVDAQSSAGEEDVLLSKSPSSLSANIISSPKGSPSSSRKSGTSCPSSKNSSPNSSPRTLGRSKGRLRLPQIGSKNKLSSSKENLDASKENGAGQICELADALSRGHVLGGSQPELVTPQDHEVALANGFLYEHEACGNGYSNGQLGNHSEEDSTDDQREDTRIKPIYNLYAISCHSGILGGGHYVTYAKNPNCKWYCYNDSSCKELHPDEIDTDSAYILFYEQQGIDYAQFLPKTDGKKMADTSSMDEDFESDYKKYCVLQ

KI (inactivation) [1] [nM]	kinact [2] [s⁻¹]	kinact/Ki [3]	IC50 ([4]; 500 nM UbRhoMP, pH 7.6, 1 mM TCEP, RT, covalent) [nM]	IC50 [4] [nM]	Compound
–	–	–	412	–	CCN1/C(=C/C=C/C=C/C2=[N+](CCCCCC(=O)NCCCc3cn(CCOc4ccc(S(=O)(=O)N5CCC(C(=O)N[C@@H]6CCN(C#N)C6)CC5)cc4)nn3)c3ccc(S(=O)(=O)[O-])cc3C2(C)C)C(C)(C)c2cc(S(=O)(=O)O)ccc21 [Huib32*1]
–	–	–	–	670	N#CN1CC[C@@H](NC(=O)C2CCN(S(=O)(=O)c3ccc(OCCN=[N+]=[N-])cc3)CC2)C1 [Huib32*]
–	–	–	–	266	N#CN1CC[C@@H](NC(=O)C2CCN(S(=O)(=O)c3ccc(OCCn4cc(CNC(=O)CCCC[C@@H]5SC[C@@H]6NC(=O)N[C@@H]65)nn4)cc3)CC2)C1 [Huib32*2]

Second part, the compound before the results:

Compound	KI (inactivation) [1] [nM]	kinact [2] [s⁻¹]	kinact/Ki [3]	IC50 ([4]; 500 nM UbRhoMP, pH 7.6, 1 mM TCEP, RT, covalent) [nM]	IC50 [4] [nM]
Cc1noc(C)c1S(=O)(=O)N1CCC(C(=O)N[C@@H]2CCN(C#N)C2)CC1 [BB01CA282, Huib32]	11.8	0.000222	18,800 s^-1M^-1	–	–
Cc1noc(C)c1S(=O)(=O)N1CCC(C(=O)N2CC3CC2CN3C#N)CC1 (centres unmarked) [BB12CA282]	152	0.000324	2,130 s^-1M^-1	–	94
Cc1noc(C)c1S(=O)(=O)N1CCC(C(=O)N2CCC3(CCN(C#N)C3)C2)CC1 (centres unmarked) [BB14CA282]	4490	0.000984	219 s^-1M^-1	–	518
